# Test results reported in ChEMBL document CHEMBL1201862, “PubChem BioAssay data set” (2004).
#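 All cell lines were grown in 96-well plates and treated with compound for 48 hours. Abbreviation: GI50, concentration required for 50% inhibition of growth.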 Active and inactive are the calls of the source. No stated cut-off is given here; in the data, active = GI50 up to about 1.1 µM and inactive = higher.
# Tests used:
# Assay in all cases: DTP human tumour cell line panel, 48 h
# DLD-1 = tested on: DLD-1
# DMS-114 = tested on: DMS-114
# DMS-273 = tested on: DMS-273
# HOP-18 = tested on: HOP-18
# LXFL 529 = tested on: LXFL 529
# M19-MEL = tested on: M19-MEL
# SNB-78 = tested on: SNB-78
# RXF 631 = tested on: RXF 631
# XF498 = tested on: XF498
Structure (SMILES),GI50 (DLD-1),GI50 (DMS-114),GI50 (DMS-273),GI50 (HOP-18),GI50 (LXFL 529),GI50 (M19-MEL),GI50 (SNB-78),GI50 (RXF 631),GI50 (XF498)
CNS(=O)(=O)NNS(=O)(=O)c1ccc2ccccc2c1,> 100 µM (inactive),> 100 µM (inactive),> 100 µM (inactive),> 100 µM (inactive),> 100 µM (inactive),> 100 µM (inactive),> 100 µM (inactive),–,–
C[C@H](OCc1ccccc1)C(=O)N1CCS(=O)(=O)N2CCC[C@H]2C1=O,> 100 µM (inactive),> 100 µM (inactive),–,> 100 µM (inactive),> 100 µM (inactive),> 100 µM (inactive),> 100 µM (inactive),> 100 µM (inactive),–
CC[C@H](C)C(=O)O[C@H]1C[C@@H](C)C=C2C=C[C@H](C)[C@H](CC[C@@H]3C[C@@H](O)CC(=O)O3)[C@H]21 [LOVASTATIN],> 30 µM (inactive),> 30 µM (inactive),8.69 µM (inactive),> 30 µM (inactive),7.76 µM (inactive),2.42 µM (inactive),–,–,–
CC[N+]1(C)CCC(O)(/C=C/c2ccccc2)C(C(=O)/C=C/c2ccccc2)C1 (configuration not stated),4.98 µM (inactive),6.62 µM (inactive),4.72 µM (inactive),16.6 µM (inactive),2.79 µM (inactive),9.98 µM (inactive),24 µM (inactive),–,8.43 µM (inactive)
Cc1ccccc1C1=C/C(=C(\SS/C(C(=O)c2ccc(OCC(=O)O)c(Cl)c2Cl)=C2\C=C(c3ccccc3C)SS2)C(=O)c2ccc(OCC(=O)O)c(Cl)c2Cl)SS1,23.8 µM (inactive),9.04 µM (inactive),20 µM (inactive),16.2 µM (inactive),4.45 µM (inactive),21.3 µM (inactive),14.4 µM (inactive),25.9 µM (inactive),19.2 µM (inactive)
O=C1NC(c2ccccc2)(c2ccccc2)C(=O)N1CCCCCCN1C(=O)NC(c2ccccc2)(c2ccccc2)C1=O,> 100 µM (inactive),34.2 µM (inactive),46 µM (inactive),26.2 µM (inactive),25.9 µM (inactive),> 100 µM (inactive),33.3 µM (inactive),–,10.3 µM (inactive)
Cc1cc(O)nc(NNC(C#N)c2ccccc2O)n1 (configuration not stated),18.4 µM (inactive),19.8 µM (inactive),5.27 µM (inactive),23.3 µM (inactive),–,17.8 µM (inactive),–,–,–
c1ccc(-c2nnc3nn4c(-c5ccccc5)cnnc4c3c2-c2ccccc2)cc1,95.1 µM (inactive),35.6 µM (inactive),> 100 µM (inactive),53 µM (inactive),42.7 µM (inactive),88.7 µM (inactive),31.7 µM (inactive),18.7 µM (inactive),27.5 µM (inactive)
COC[C@@H](/N=C/N1CCc2cc(OC)c(OC)cc2C1)C(C)(C)C,> 100 µM (inactive),> 100 µM (inactive),–,> 100 µM (inactive),> 100 µM (inactive),> 100 µM (inactive),–,> 100 µM (inactive),> 100 µM (inactive)
C[C@H]1CC[C@H](NC(=O)N(CCCl)N=O)CC1,39.5 µM (inactive),36.5 µM (inactive),33.1 µM (inactive),40.8 µM (inactive),14.9 µM (inactive),41.3 µM (inactive),35.2 µM (inactive),33.1 µM (inactive),45.7 µM (inactive)
O=C(N/C(=C\c1cccc([N+](=O)[O-])c1)c1nc2cc([N+](=O)[O-])ccc2[nH]1)c1ccccc1,28.4 µM (inactive),–,39 µM (inactive),–,11 µM (inactive),40.7 µM (inactive),49.3 µM (inactive),28.8 µM (inactive),20.7 µM (inactive)
S=P(N1CC1)(N1CC1)N1CC1 [THIOTEPA],195 µM (inactive),35.4 µM (inactive),21.3 µM (inactive),231 µM (inactive),146 µM (inactive),142 µM (inactive),385 µM (inactive),–,95.1 µM (inactive)
CC(C)C(Nc1c2ccccc2nc2ccccc12)C(=O)O (configuration not stated),> 100 µM (inactive),–,68.4 µM (inactive),–,> 100 µM (inactive),> 100 µM (inactive),–,–,3.08 µM (inactive)
O=C1[C@@H]2C3SC(c4ccccc43)[C@@H]2C(=O)N1c1ccccc1,> 100 µM (inactive),> 100 µM (inactive),> 100 µM (inactive),> 90.4 µM (inactive),> 100 µM (inactive),> 100 µM (inactive),> 100 µM (inactive),–,61 µM (inactive)
CCN(CC)c1ccc2c(c1)N=C1N=CC=CN1C2(c1ccc(N(C)C)cc1)c1ccc(N(C)C)cc1,4.53 µM (inactive),3.09 µM (inactive),25.8 µM (inactive),3.72 µM (inactive),3.84 µM (inactive),5.97 µM (inactive),16.7 µM (inactive),3.83 µM (inactive),3.72 µM (inactive)
CCCc1nn(C)c(CCC(=O)N(Cc2ccccc2)Cc2ccccc2)c1CC,> 100 µM (inactive),> 100 µM (inactive),–,> 100 µM (inactive),> 100 µM (inactive),> 100 µM (inactive),> 100 µM (inactive),–,> 100 µM (inactive)
COc1cc2c(c(OC)c1OC)-c1ccc(SC)c(=O)cc1C(CC(=O)Oc1cccc(F)c1)C2 (configuration not stated),0.397 µM (active),0.24 µM (active),0.214 µM (active),> 62.2 µM (inactive),0.316 µM (active),0.263 µM (active),0.237 µM (active),0.115 µM (active),0.344 µM (active)
COC(=O)C1=C(c2ccc(OC)c(OC)c2)OC(c2ccc(OC)c(OC)c2)C1 (configuration not stated),5.93 µM (inactive),23.2 µM (inactive),54.7 µM (inactive),33.5 µM (inactive),16.2 µM (inactive),42.6 µM (inactive),28.7 µM (inactive),–,23.2 µM (inactive)
COc1ccc(/C=N/N=C(\N)NO)cc1OC,60.1 µM (inactive),28.7 µM (inactive),48.9 µM (inactive),–,33.9 µM (inactive),44.8 µM (inactive),> 100 µM (inactive),–,35.1 µM (inactive)
COC(=O)/C=C1/CCC2[C@@H](C(=O)CC3[C@]2(C)CCC[C@@]3(C)C(=O)OC)C1C (some centres not stated),12.7 µM (inactive),10.3 µM (inactive),12.7 µM (inactive),14.4 µM (inactive),6.22 µM (inactive),15.5 µM (inactive),10 µM (inactive),15.5 µM (inactive),15.3 µM (inactive)
O=c1cc(-c2ccccc2)oc2cc(O)cc(O)c12 [CHRYSIN],–,22.4 µM (inactive),16.2 µM (inactive),–,21.1 µM (inactive),25.5 µM (inactive),28.8 µM (inactive),–,20 µM (inactive)
Cc1ccccc1C(C#N)/C(=N/NC(=O)C(=O)NN)C(=O)Nc1cccc(C(F)(F)F)c1 (configuration not stated),> 100 µM (inactive),> 100 µM (inactive),> 100 µM (inactive),> 100 µM (inactive),> 100 µM (inactive),> 100 µM (inactive),> 100 µM (inactive),> 100 µM (inactive),–
COC(=O)c1ccccc1/N=C/c1ccc(N(CCC#N)S(=O)(=O)c2ccccc2)cc1,> 100 µM (inactive),–,> 100 µM (inactive),> 100 µM (inactive),> 100 µM (inactive),> 100 µM (inactive),> 100 µM (inactive),> 100 µM (inactive),> 100 µM (inactive)
CC(=O)OC1COC(n2c(=S)n(-c3ccccc3)c(=O)c3ccccc32)C(OC(C)=O)C1OC(C)=O (configuration not stated),56.5 µM (inactive),40.6 µM (inactive),19.2 µM (inactive),> 100 µM (inactive),8.55 µM (inactive),–,> 100 µM (inactive),47.9 µM (inactive),74.6 µM (inactive)
COc1ccc(-c2cc(=O)c3c(O)cc(O)cc3o2)c(OC)c1OC,81.3 µM (inactive),50.1 µM (inactive),–,–,49.3 µM (inactive),63 µM (inactive),–,–,63 µM (inactive)
